From patent EP0906096B1, “USE OF HYDROXYPROLINES FOR THE MANUFACTURE OF A MEDICAMENT FOR INHIBITING LEUKOCYTE INVASION OF TISSUES” (Chephasaar Chem.-Pharm. Fabrik GmbH, priority 1996, dated 1997)

Columns and labels:
[1] = tested on: Lymphozyten und Monozyten; assay: Ex vivo adhesion of volunteers' lymphocytes and monocytes after oral intake; format: in vivo, Menschen; conditions: 400 - 800 mg
Granulozyten [2] = assay: Adhesion of granulocytes to an endothelial layer (method of Hahne et al. 1993); format: cell-based
Text: Gemäß M. Hahne et al. (1993), J. Cell. Biol. 121, 655-664 wurde die IC50-Konzentration von Hydroxyprolinderivaten, die zu einer 50 %igen Reduktion der Adhäsion von Granulozyten an einer Endothelschicht führte, bestimmt. Als besonders wirksam zeigte sich die an R2 acetylierte Verbindung.

[3] = tested on: ischämisch traumatisiertes Gefäßendothel; assay: Post-ischaemia model (Nolte et al. 1995), leukocyte adherence in postcapillary venules; format: in vivo, Hamster; conditions: 50 mg/kg given 10 min before reperfusion; effect present after 0,5 and 2 hours; in all animals
Method: In dem von Nolte et al., Int. J. Microcirc. 15 (suppl 1) (1995), 9 - 16 beschriebenen Postischämiemodell beim Hamster zeigte sich, dass N-Acetylhydroxyprolin (Oxazeprol) bei Dosierungen von 50 mg/kg kurz yor Reperfusion (10 min) gegeben, die Adhäsion der Leukozyten am ischämisch traumatisierten Gefäßendothel um ca. 50 % reduzierte. Dieser Effekt war nach 0,5 und 2 Stunden vorhanden (Abb. 3). Er trat in allen untersuchten Tieren auf. Oxazeprol verhielt sich damit ähnlich wie Buflomidil (ein PDE4-Hemmer), Iloprostol (ein PhI-Analog) und monoklonale Antikörper gegen Selektine, d.h. N-Acetylhydroxyprolin verhinderte spezifisch die im Gefolge einer Noxe (Ischämie) auftretende Leukozytenadhäsion und -invasion ins Gewebe.

Granulozyten [4] = assay: Ex vivo adhesion of volunteers' granulocytes to endothelia after oral intake; format: in vivo, Menschen
Text: Gesunde Probanden erhielten eine einmalige Dosis von N-Acetylhydroxyprolin zum Zeitpunkt 0. Unmittelbar vorher und zu den genannten Zeitpunkten wurde Blut abgenommen und die Leukozyten mit Hilfe der Lymphoprep-Separation (Histoprep, Biologische Arbeitsgemeinschaft GmbH, Lich, Germany) präpariert. Die Adhäsion wurde wie in M. Hahne et al. (1993), J . Cell Biol. 121, 655 - 664 beschrieben bestimmt. Die durch LPS-Stimulation erhöhte Adhäsion ist evident (⌀ im Vergieich zu LPS, Zeitpunkt ⌀).

Blutplättchen = assay: Ex vivo platelet function after oral intake; format: in vivo; conditions: volunteers, 400 - 800 mg
[5] = tested on: Carrageenin-Pfotenödem, Adjuvansarthritis, Baumwollgranulom; assay: Standard inflammation models (carrageenan paw oedema, adjuvant arthritis, cotton granuloma), histology; format: in vivo; conditions: short-term and long-term application; histological work-up
[6] = tested on: eosinophiles Lungeninfiltrat; assay: Acute allergic inflammation: protein-induced eosinophilic lung infiltrate in sensitised guinea pigs; format: in vivo, Meerschweinchen
Text: In Modellen der akuten allergischen Entzündung, wie z.

[7] = ex vivo, volunteers, single or repeated intake of 400 - 800 mg

**Q.** What does the source list for `CC(=O)N1C[C@H](O)C[C@H]1C(=O)O` [N-Acetylhydroxyprolin, N-Acetyl-L-hydroxyprolin]?
**A.** Effekte auf Lymphozyten und Monozytenadhäsion [1]: verschwanden hingegen nach wenigen Stunden; noch meßbar bei (Granulozyten [2]; concentration at which inhibition of granulocyte adhesion is still measurable, unit not given): 10^-9; IC50 (Granulozyten [2]; concentration giving 50 % reduction of granulocyte adhesion to an endothelial layer, unit inferred): ~100 nM; Reduktion der Adhäsion der Leukozyten am ischämisch traumatisierten Gefäßendothel [3]: ca. 50%; Adhäsion der Granulozyten an Endothelien (Granulozyten [4]; [7]): reduzierte Adhäsion; Dauer des Effekts auf die Granulozytenadhäsion (Granulozyten [4]; [7]): 24 - 48 Stunden; durch LPS-Stimulation erhöhte Adhäsion (Granulozyten [4]; healthy volunteers, single dose at time 0, after 24 hours (Abb. 2)): weitgehend durch N-Acetylhydroxyprolin gehemmt; Funktion der Blutplättchen (Blutplättchen): nicht tangiert; Invasion der Granulozyten [5]: deutliche reduzierte Invasion; Invasion von monozytären Leukozyten [5]: kaum verändert; Einwanderung von Granulozyten ([6]; late phase): signifikant reduziert; Einwanderung der eosinophilen Granulozyten ([6]; sensitised guinea pig, protein-induced): keinen meßbaren Effekt
